Data reported in patent US20220184055A1, “CHIAURANIB FOR TREATMENT OF SMALL CELL LUNG CANCER” (SHENZHEN CHIPSCREEN BIOSCIENCES CO., LTD., priority 2019, published 2022).
“Also recorded” adds a separate entry of the source.

Legend:
SCLC = settings: combined with best supportive treatment; cited from earlier work
advanced solid tumors = assay: Phase I clinical trial of chiauranib in patients with advanced solid tumors; type: in vivo, human; settings: for objective remission (complete remission CR and partial remission PR): 18 patients, 8 tumor types, oral once daily 10-65 mg dose escalation, RECIST 1.1
Experimental: Test drug: chiauranib capsules, strength: 5 mg, 25 mg, produced by Shenzhen Chipscreen Biosciences, Co., Ltd.
Dosage regimen: The starting dose was 10 mg/day. After the starting dose, according to the modified Fibonacci method, the patients were enrolled in order from low dose to high dose, and the set dose groups were 20 mg, 35 mg, 50 mg, 65 mg . . . dose groups, respectively, until the MTD was determined.
Chiauranib capsules were administered orally, once a day in the morning. Before knowing the analysis data of the effects of food on bioavailability, the drugs were administered on empty stomach.
Number of cases: 18 cases were enrolled.
The prescribed dose of Chiauranib capsules was administered orally on empty stomach once every day, and every 28 days was a treatment cycle; there was no stopping interval during the treatment cycles, and all enrolled patients received the test drug treatment until the disease progressed or intolerable toxicity appeared.
Efficacy evaluation: The clinical benefits of tumor treatment include:
Judgment criteria: The efficacy was evaluated according to the RECIST version 1.1 (2009) standard of solid tumors.
(§1) Safety assessment: physical examination, vital signs, ECOG physical score, blood routine, urine routine, 12-lead ECG, blood biochemistry, electrolytes, coagulation function, myocardial enzymes, troponin, TSH, FT3, FT4, amylase, echocardiography, 24-hour urine protein quantification (if necessary), and adverse events were included.
A total of 18 patients were enrolled in the trial, all of which were included in the FAS, SS, and PPS analysis sets. Among the 18 patients, 7 cases (38.9%) had colorectal cancer, 5 cases (27.8%) had non-small cell lung cancer, and 1 case each for gastric cancer, ovarian cancer, thyroid papillary carcinoma, diffuse large B-cell lymphoma, fibrosarcoma, and poorly differentiated renal carcinoma.

[1] = tested on: recurrent and refractory small cell lung cancer; assay: Phase Ib clinical trial of chiauranib alone in recurrent and refractory small cell lung cancer; type: in vivo, human; settings: 50 mg/day QD oral
Experimental: Test drug: Chiauranib capsules, strength: 5 mg, 25 mg, produced by Shenzhen Chipscreen Biosciences, Co., Ltd.
Dosage regimen: Chiauranib capsules were administered at 50 mg/day, QD (no adjustments to body weight or body surface area), on an empty stomach every morning with water, swallowing whole capsules intact. Continuous administration for 28 days constituted a treatment cycle, and there was no interval between treatment cycles.
Number of cases: 25 cases were enrolled.
The test subjects were administered with 50 mg of Chiauranib capsules orally once a day, every 28 days as a treatment cycle, and there was no stopping interval during the treatment cycles. Throughout the trial period, all subjects continued treatment until any of the following conditions (whichever occurred first) occurred: disease progression, intolerable toxic response, death, withdrawal of informed consent, or loss to follow-up.
Efficacy evaluation: According to the RECIST1.1 standard, evaluation was performed in the baseline period and at the 4th weekend after treatment, and repeated every 8 weeks until the disease progressed. Tumor imaging examinations include CT or MRI of the neck, chest, whole abdomen, and pelvis. Examinations of other parts were carried out when necessary based on clinical indications. The same techniques and methods should be employed for the baseline of the lesion and follow-up assessment and measurement.
as §1, with “ECOG fitness” for “ECOG physical”, “12-lead ECG” for “12-lead ECG,”

[2] = 20 patients with efficacy evaluation

CC[C@@]1(O)C(=O)OCc2c1cc1n(c2=O)Cc2cc3c(CN(C)C)c(O)ccc3nc2-1 [topotecan]
overall survival, quality of life and improvement of symptoms versus best supportive treatment alone (SCLC): significantly better

COc1ccc2c(Oc3ccc4c(C(=O)Nc5ccccc5N)cccc4c3)ccnc2c1 [chiauranib, N-(2-aminophenyl)-6-(7-methoxyquinoline-4-oxo)-1-naphthylamide]
PR, number of patients (advanced solid tumors; 8 common tumors, 18 patients evaluated): 0
objective remission (complete remission CR and partial remission PR) (advanced solid tumors): no objective remission was observed; also recorded: no patients with objective remission were observed
objective remission (complete remission CR and partial remission PR) (advanced solid tumors; listed as Chiauranib): no cases with objective remission were observed
objective response rate (ORR) / PR (%) [1, 2]: 20%
patients whose target lesions were reduced by more than 30% from baseline, number [1, 2]: 5 patients
patients whose target lesions were reduced by more than 30% from baseline, percent [1, 2]: 25%
best efficacy evaluation PR, number of patients ([1]; 20 patients with efficacy evaluation of 25 enrolled, RECIST 1.1): 4 patients
